From publication PMC6014988, “Precision therapeutic targeting of human cancer cell motility” (Nature Communications, 2018)
pIC50: −log10 of the molar value.

Experiments:
[1] = Three-day MTT cell growth inhibition assay, PC3; type: cell-based, human; conditions: human, PC3 cells
PC3 = test: Three-day MTT cell growth inhibition assay, PC3; type: cell-based, human; conditions: Homo sapiens, PC-3, 72 h, 3 days
[2] = system: matrix metalloproteinase 2 (MMP-2); set-up: method as in PMID 19638505; conditions: prospective human trial; cited from earlier work
MKK4 = MKK4 (Homo sapiens, UniProt P45985); set-up: method as in PMID 19638505; conditions: low nanomolar concentrations; cited from earlier work
[3] = Three-day MTT cell growth inhibition assay, PC3M; type: cell-based, human; conditions: human; PC3M; 3 days
From the text: (§1) Assays were in replicates of N = 3, and were repeated. […]
(§2) Values are the mean±SEM of a single experiment, in
(§3) replicates of N=4, repeated at least once (also N=4).
(§4) Supplementary Figure 1b. Synthetic round #2.

PC3M = test: Three-day MTT cell growth inhibition assay, PC3M; type: cell-based, human; conditions: Homo sapiens, PC-3M, 72 h, PC3M
From the text: as §1, §2, §3, §4

[4] = system: human PCa PC3-M cell orthotopic implants; set-up: method as in PMID 18339885; conditions: murine orthotopic model; cited from earlier work
1532NPTX = test: Three-day MTT cell growth inhibition assay, 1532NPTX; type: cell-based, human; conditions: Homo sapiens, 72 h, 3 days
[5] = as above; type: cell-based, human; conditions: human, 1532NPTX cells
[6] = Three-day MTT cell growth inhibition assay, 1532CPTX; type: cell-based, human; conditions: human, 1532CPTX cells
1532CPTX = test: as above; type: cell-based, human; conditions: Homo sapiens, 72 h, 3 days
1542NPTX = test: Three-day MTT cell growth inhibition assay, 1542NPTX; type: cell-based, human; conditions: Homo sapiens, 72 h, 3 days
[7] = as above; type: cell-based, human; conditions: human, 1542NPTX cells
[8] = system: protein phosphorylation in PC3-M and PC3 cells; test: KinomeView phospho-motif antibody screen; type: cell-based, human; conditions: 10 µM, 3 days, ± TGFβ
Method: The Kinoview™ and PhosphoScan™ assays were performed by Cell Signaling Technology Inc.
Supplementary Figure 10. Proteomic analysis of the effects of KBU2046 on the kinome. (a-c) Screening for effects on the kinome. PC3-M cells were pre-treated with 10 µM KBU2046, genistein or vehicle control for 3 days, then with ± TGFβ, as indicated. Resultant cell lysate, as well as lysate from tumors from mice treated with 150 mg/kg KBU2046 or control mice (from manuscript Figure 2a), were then probed with the KinomeView® panel of antibodies by Western blot. In instances where KBU2046 was inhibiting protein phosphorylation in cells and in tumors, a repeat experiment of PC3-M cells was conducted (Experiment #2). In addition to including PC3-M cells, as in Experiment #1, Experiment #2 expanded to examine effects on PC3 cells. (a) The identification of an 83 kDa band of interest (red arrows). This constitutes the only change […]
as in tumor tissue. […] (c) All […]
other Western blots of phospho-motif antibodies that were evaluated on initial screen. NI = tumor not informative; this denotes a tumor sample that yielded an abnormal coomassie blue staining pattern. Data from this sample was therefore not considered further.
(also on this page, place not known: cat #C32G12; tPE cat #2981; sRXY, FXs NI NI cat #2351; tXR cat #23C8D12; RXRXX(s/t) NI NI)
(1 picture or pasted object on this page, not shown here)

[9] = Three-day MTT cell growth inhibition assay, 1542CPTX; type: cell-based, human; conditions: human, 1542CPTX cells
1542CPTX = test: as above; type: cell-based, human; conditions: Homo sapiens, 72 h, 3 days
[10] = system: human prostate cells (PC3, PC3-M, 1532NPTX, 1542NPTX, 1532CPTX, 1542CPTX); set-up: method as in PMID 15833883; conditions: human PCa cells, nanomolar concentrations; cited from earlier work
PC3-M cells = test: Boyden chamber cell invasion assay, PC3-M cells; type: cell-based, human; conditions: PC3-M cells, 10 µM compound, 3 days
Method: Boyden chamber cell invasion assays were performed as previously described by us[30], using either denatured collagen (BD Biosciences) or type IV human collagen (BD Biosciences), with all experiments repeated, each in N = 4 replicates. In some experiments, as indicated, cells were transfected with an expression plasmid, using Lipofectamine 2000™ (Invitrogen), or with siRNA, using DharmaFect Duo (Thermo Scientific) and co-transfected with β-Galactosidase (Plasmid pCMV•SPORT-βgal; Life Technology). […]
For cell invasion, PC3-M cells […]
were treated with 10 µM compound for a total of 3 days, and cell invasion assays were run at the end of the 3 day period, in the presence of compound. Values are the mean±SEM of three separate experiments, each run in replicates of N=3. […]
assays were performed with PC3-M cells. Values are the mean±SEM of a single experiment, in replicates of N=4, repeated at least once (also N=4). […]

over 9000 human proteins = test: ProtoArray Human Protein Microarray binding assay; conditions: levels >/= 10 fold above background
Method: The ProtoArray® assay, using the Human Protein Microarray platform, was performed by Invitrogen. […]
followed by detection with FITC-streptavidin, and visualization by fluorescent microscopy (with equal exposure times). (d) Protein array hybridization. KBU2046-biotin was hybridized to ProtoArray® Human Protein Microarray’s at 0.5 and 10 µM with and without 10 fold excess free KBU2046. We first sought proteins that met the following criteria, and did so at both 0.5 and 10 µM concentrations of KBU2046-biotin (in the absence of free KBU2046): Z-Score greater than 2.5, Z-Factor greater than 0.5, CI P-value less than 0.05, negative control value <2,000 (relative fluorescence units; RFUs), and a signal/negative control signal of >10 and >5 for 10 µM and 0.5 µM conditions, respectively. This yielded 3 proteins, shown in table, for an initial hit rate of 0.03%. We then required free KBU2046 to inhibit binding by >75%. Of the two remaining candidates, we eliminated isovaleryl-CoA dehydrogenase (ICD). Its binding signal doubled on […]
suspected non-specific binding by the biotin-linker moiety. We deemed cysteine and glycine-rich protein 1 (CSRP1) our top priority protein, though its binding characteristics at 10 µM + free KBU2046 were similar to ICD, albeit not as extreme. We thus evaluated whether KBU2046- […]
There were two additional notable findings from protein array studies. […]

MKK4, sequence (P45985 whole entry): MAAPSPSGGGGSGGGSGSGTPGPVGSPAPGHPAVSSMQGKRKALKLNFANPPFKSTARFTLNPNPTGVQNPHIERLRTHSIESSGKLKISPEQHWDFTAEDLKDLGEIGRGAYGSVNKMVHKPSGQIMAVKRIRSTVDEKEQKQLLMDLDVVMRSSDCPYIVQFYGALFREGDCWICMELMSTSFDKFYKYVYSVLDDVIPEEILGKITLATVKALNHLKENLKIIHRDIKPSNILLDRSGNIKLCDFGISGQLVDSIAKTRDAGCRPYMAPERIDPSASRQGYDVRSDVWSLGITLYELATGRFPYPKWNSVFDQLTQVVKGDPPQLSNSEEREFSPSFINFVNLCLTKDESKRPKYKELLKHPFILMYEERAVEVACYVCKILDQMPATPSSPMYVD

Question: Which results are given for `O=c1c(-c2ccc(O)cc2)coc2cc(O)cc(O)c12` [Genistein, 4′,5,7-trihydroxyisoflavone, reference compound]?
Answer: viability at 3 days, 50 µM [1]: 39.3%; IC20 (PC3): 18 µM; pIC50 (PC3): 4.38; MMP-2 expression in prostate tissue [2]: downregulates; inhibition of MKK4 kinase activity (MKK4): inhibited the kinase activity; viability at 3 days, 50 µM [3]: 46.2%; IC20 (PC3M; concentration inhibiting cell growth by 20% after 3 days): 17.5 µM; pIC50 (PC3M; concentration inhibiting cell growth by 50% after 3 days): 4.34; metastasis [4]: inhibit; IC20 (1532NPTX): 23 µM; pIC50 (1532NPTX): < 4.30; viability at 3 days, 50 µM [5]: 66.9%; viability at 3 days, 50 µM [6]: 71.7%; IC20 (1532CPTX): 30.8 µM; pIC50 (1532CPTX): < 4.30; IC20 (1542NPTX): 18.7 µM; pIC50 (1542NPTX): < 4.30; viability at 3 days, 50 µM [7]: 80.5%; changes in protein phosphorylation [8]: widespread changes in protein phosphorylation; viability at 3 days, 50 µM [9]: 77.4%; IC20 (1542CPTX): 24.7 µM; pIC50 (1542CPTX): < 4.30; cell invasion [10]: inhibit human prostate cancer (PCa) cell invasion

Question: Which anti-invasion activity (PC3-M cells) does the source give for `O=c1c(-c2ccc(O)cc2)coc2cccc(O)c12` [compound 8] here?
Answer: does not affect activity

Question: Which anti-invasion activity (PC3-M cells) does the source give for `COc1ccc(-c2coc3cc(OC)cc(O)c3c2=O)cc1` [compound 16] here?
Answer: retains anti-invasion activity

Question: For `CN[C@@H]1C[C@H]2O[C@@](C)([C@@H]1OC)n1c3ccccc3c3c4c(c5c6ccccc6n2c5c31)C(=O)NC4` [staurosporine], which “number of proteins bound” value (over 9000 human proteins) is on record?
Answer: 214
